A short description of data set [1]: Toxicity study, intraperitoneal administration. As for the experimental part:
The objective of this study was to determine if the treatment regimen proposed for the efficacy study of the defensin formulations caused target organ toxicity. This study is not intended to support application for research or marketing permits for products regulated by governmental agencies. The purpose of this study is to provide range-finding data is therefore, not within the scope of Good Laboratory Practice Guidelines.
Mice were treated by intravaginal administration twice daily at ˜12 hour intervals administered on Days 1 through 4. Mice were treated intraperitoneally three times on Day 1 at ˜4 hour intervals, and twice daily at ˜12 hour intervals administered on days 2 through 4.
Dosing volumes were 0.1 mL/mouse (intravaginal), 0.1 mL/mouse (intraperitoneal), and 20 μL/rabbit. The study lasted 5 days, with day 1 the first day of dose administration.
The dose formulations were supplied in pyrogen-free saline.

A further data set deals with S. aureus ATCC 6538. Put plainly: Protocol 3 time-dependent antimicrobial activity at one dose level. The class given is cell-based, Staphylococcus aureus. To be noted: 50 μg/ml, 10 mM sodium phosphate buffer pH 7.4, 1, 2, 5 and 15 minutes, room temperature. The protocol: The objective of this protocol is to establish a procedure for determining the antimicrobial activity of indolicidin (e.g., L-IND) at 50 μg/ml over an extended exposure time up to 24 hours at room temperature. It is believed that this procedure more closely mimics the recommended use of lens-care products.
Exposure of the test organism to indolicidin occurs in a buffered solution for up to 24 hours with sampling for viability at different time intervals. Polypropylene 96-well microtiter plates and microcentrifuge tubes are used for exposure and dilution of indolicidin, respectively.
The following materials are used: sterile glass tubes containing 5 ml of Mueller-Hinton Broth (MHB), Mueller-Hinton agar plates, sterile 96-well polypropylene microtiter plates, and sterile polypropylene microcentrifuge tubes.
One or more of the following microorganisms are used in assays using this protocol or modification of this protocol: Pseudomonas aeruginosa (ATCC 9027), Pseudomonas aeruginosa (ATCC 27853), and S. aureus (ATCC 6538).
Five 5 ml of MHB tubes are innoculated with the tester strain(s) from MHA plates and grown overnight at 37° C. on a shaker (180 rpm). […]
Survival is determined by counting the colonies appearing on plates after overnight incubation at 37° C. The results are expressed as CFU/ml and survival is expressed as the percent of the bacteria that survived the treatment. […]

SMILES strings stand for the structures.

With `CC[C@H](C)[C@H](N)C(=O)N[C@@H](CC(C)C)C(=O)N1CCC[C@H]1C(=O)N[C@@H](Cc1c[nH]c2ccccc12)C(=O)N[C@@H](CCCCN)C(=O)N[C@@H](Cc1c[nH]c2ccccc12)C(=O)N1CCC[C@H]1C(=O)N[C@@H](Cc1c[nH]c2ccccc12)C(=O)N[C@@H](Cc1c[nH]c2ccccc12)C(=O)N1CCC[C@H]1C(=O)N[C@@H](Cc1c[nH]c2ccccc12)C(=O)N[C@@H](CCCNC(=N)N)C(=O)N[C@@H](CCCNC(=N)N)C(N)=O` [L-indolicidin, H2N-ILPWKWPWWPWRR-CONH2], the gross alterations result in data set [1] (0.1 mL/mouse at 10, 100 or 1000 μg/mL, BPN-A-amide at 30, 300 or 3000 μg/mL) was “no gross alternations”. In addition, the “deaths or clinical signs of toxicity” value in data set [1] (L-indolicidin 10, 100 or 1000 μg/mL, D-indolicidin 10 or 1000 μ/mL, All-Phe-indolicidin 10 μg/mL, BPN-A-amide 30, 300 or 3000 μg/mL) was “no deaths or biologically significant clinical signs of toxicity”. Moreover, the survival result with S. aureus ATCC 6538 is “no survival”.

The values are drawn from patent US6482799B1, “Self-preserving multipurpose ophthalmic solutions incorporating a polypeptide antimicrobial” (The Regents of the University of California, priority 1999, dated 2002).
